Assays:
[1] = target: T1, human dipeptidyl peptidase III (hDPP III) (Homo sapiens, UniProt Q9NY33); experiment: spectrophotometric enzyme assay, % inhibition at […], purified hDPP III; type: biochemical; details: for inhibition at 10 µM: read-out: DPP III Inh. (%)
T1 construct: gene DPP3; C-terminally truncated human DPP III (His-tag removed by TEV)
T1 sequence (Q9NY33 1-726 limits assumed): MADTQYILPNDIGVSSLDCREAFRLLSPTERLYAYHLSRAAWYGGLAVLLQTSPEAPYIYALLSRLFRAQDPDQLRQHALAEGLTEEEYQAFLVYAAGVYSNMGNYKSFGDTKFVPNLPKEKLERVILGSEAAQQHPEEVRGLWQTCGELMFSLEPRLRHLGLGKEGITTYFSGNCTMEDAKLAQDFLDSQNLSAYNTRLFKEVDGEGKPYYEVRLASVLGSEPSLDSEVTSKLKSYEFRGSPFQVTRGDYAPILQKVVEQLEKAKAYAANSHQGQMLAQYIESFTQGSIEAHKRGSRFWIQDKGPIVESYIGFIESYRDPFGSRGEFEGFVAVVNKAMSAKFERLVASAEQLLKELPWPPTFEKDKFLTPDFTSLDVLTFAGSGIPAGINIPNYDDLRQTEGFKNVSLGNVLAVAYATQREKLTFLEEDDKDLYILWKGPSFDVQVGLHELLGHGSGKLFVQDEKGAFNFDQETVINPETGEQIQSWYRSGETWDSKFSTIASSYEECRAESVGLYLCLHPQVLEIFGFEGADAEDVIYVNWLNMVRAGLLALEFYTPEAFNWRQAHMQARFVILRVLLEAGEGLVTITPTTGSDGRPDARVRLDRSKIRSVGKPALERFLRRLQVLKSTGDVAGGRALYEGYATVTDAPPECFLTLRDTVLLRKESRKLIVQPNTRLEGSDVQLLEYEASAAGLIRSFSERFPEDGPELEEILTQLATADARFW

[2] = target: T1, human dipeptidyl peptidase III (hDPP III); experiment: spectrophotometric enzyme assay with Arg2-2NA substrate, purified hDPP III; type: biochemical; details: read-out: DPP III Inh. (%)

Row | inhibition at 10 µM [1] [%] | IC50 [2] [µM] | further results | SMILES
1 | 44.6 |  |  | N#Cc1cc2cc(O)ccc2oc1=O [compound 18, 3-cyano; 6-hydroxy (substituted 2-oxo-2H-chromene-3-carbonitrile)]
2 |  | 2.14 ± 0.06 |  | COC(=O)c1cc2ccc(O)cc2oc1=O [compound 36, methyl 7-hydroxy-2-oxo-2H-chromene-3-carboxylate]
3 | 67.5 |  |  | O=C(c1ccccc1)c1cc2cc(O)ccc2oc1=O [compound 10, 3-benzoyl; 6-hydroxy (substituted 2H-chromen-2-one)]
4 |  | 1.1 ± 0.05 |  | O=C(c1ccccc1)c1cc2ccc(O)cc2oc1=O [compound 12, 3-benzoyl-7-hydroxy-2H-chromen-2-one]
5 | 62.6 |  |  | N#Cc1cc2cccc(O)c2oc1=O [compound 21, 3-cyano; 8-hydroxy (substituted 2-oxo-2H-chromene-3-carbonitrile)]
6 |  |  | DPP III Inh. (%) ([1]; 10 µM): 66.0 | CCOC(=O)c1cc2cc(O)ccc2oc1=O [compound 27, 3-ethoxycarbonyl; 6-hydroxy (substituted 2H-chromen-2-one)]

Source: article PMC8229952, “Coumarin Derivatives Act as Novel Inhibitors of Human Dipeptidyl Peptidase III: Combined In Vitro and In Silico Study” (Pharmaceuticals, 2021)
